Structures can show the parent of a compound that is named as a salt.
Target: T1, human glycine transporter type 1 (Gly-T1) (Homo sapiens, UniProt P48067)
T1 construct: JAR) cells endogenously expressing human glycine transporter type 1 (Gly-T1); endogenous in cells; host or cells: JAR human placental choriocarcinoma cells
T1 sequence (P48067 1-706): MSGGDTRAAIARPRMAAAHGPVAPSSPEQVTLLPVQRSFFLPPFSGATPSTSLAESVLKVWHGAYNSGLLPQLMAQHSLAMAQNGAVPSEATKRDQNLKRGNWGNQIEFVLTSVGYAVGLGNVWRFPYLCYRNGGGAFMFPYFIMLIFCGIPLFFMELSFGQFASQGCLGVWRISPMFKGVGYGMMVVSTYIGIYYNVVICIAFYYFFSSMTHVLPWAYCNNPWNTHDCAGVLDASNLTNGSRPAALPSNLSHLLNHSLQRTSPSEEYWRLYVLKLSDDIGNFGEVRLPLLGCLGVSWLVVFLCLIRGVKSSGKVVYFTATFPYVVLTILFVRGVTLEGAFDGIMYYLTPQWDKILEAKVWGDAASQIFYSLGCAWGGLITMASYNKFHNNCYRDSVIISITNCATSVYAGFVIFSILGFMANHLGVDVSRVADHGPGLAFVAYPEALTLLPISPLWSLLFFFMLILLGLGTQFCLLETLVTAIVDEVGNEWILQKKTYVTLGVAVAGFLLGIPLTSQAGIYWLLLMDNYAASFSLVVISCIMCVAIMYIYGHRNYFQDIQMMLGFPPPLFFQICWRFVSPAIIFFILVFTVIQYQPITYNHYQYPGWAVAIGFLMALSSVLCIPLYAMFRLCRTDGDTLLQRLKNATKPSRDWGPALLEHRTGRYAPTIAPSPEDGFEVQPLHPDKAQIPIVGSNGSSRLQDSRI
Experiment: Glycine Transporter 1 (GlyT1) Uptake Assay, in vitro
Type: cell-based
Conditions: inhibition of [14C] glycine uptake (5 μM) in JAR cells endogenously expressing GlyT1; approximate values
Protocol: This cell-based assay measures the ability of test compounds to inhibit the uptake of glycine by the glycine transporter type 1. Human placental choriocarcinoma (JAR) cells endogenously expressing human glycine transporter type 1 (Gly-T1) were used for this assay. For uptake assays, JAR cells were cultured in 96-well cytostar T scintillating microplates (Amersham Biosciences) in RPMI 1640 medium containing 10% fetal bovine serum in the presence of penicillin (100 μg/ml) and streptomycin (100 μg/ml). Cells were plated at a density of 4×10^4 cells/well and grown at 37° C. in a humidified atmosphere of 5% CO2 for 24 h.
Culture medium was removed from Cytostar plate and JAR cells were incubated with 30 μl of Uptake buffer (120 mM NaCl, 2 mM KCl, 1 mM CaCl2, 1 mM MgCl2, 10 mM Hepes, 5 mM alanine, pH 7.5) with or without compound for 5 min. Then 30 μl of [^14C] glycine (101 mCi/mmol, obtained from Perkin Elmer) diluted in Uptake buffer was added to each well to give a final concentration of 5 μM. After incubation at room temperature for the desired time usually 1-2 h, sealed 96-well Cytostar plates were counted on a TopCount (Packard). Nonspecific uptake of [^14C] glycine was determined in the presence of 10 μM cold ALX-5407 (Sigma).
IC50 curves were generated from the raw data collected from the TopCount and fitted with a four-parameter logistic equation using in-house data analysis tool, Activity Base.

SMILES	IC50 [nM]
O=C(O)CN1CCC(N(c2ccccc2)c2cccc(C(F)(F)F)c2)CC1 [Cpd I-7, 2-(4-(phenyl(3-(trifluoromethyl)-phenyl)amino)piperidin-1-yl)-acetic acid]	393
CC1CC(C(c2ccccc2)c2ccccc2)CCN1CC(=O)O (centres unmarked) [Cpd I-15, 2-(4-benzhydryl-2-methyl-piperidin-1-yl)acetic acid]	52
O=C(O)CN1CCN(c2cccc3ccccc23)CC1 [Cpd I-9, 2-(4-naphth-1-ylpiperazin-1-yl)acetic acid]	> 10000
O=C(O)CN1CCC(N(c2ccccc2)c2ccc(C(F)(F)F)cc2)C1 (centres unmarked) [Cpd II-5, 2-(3-(phenyl(4-(trifluoromethyl)-phenyl)amino)pyrrolidin-1-yl)acetic acid]	18
C[C@@H]1CN(c2cccc3ccccc23)CCN1CC(=O)O [Cpd I-10, (R)-2-(2-methyl-4-naphth-1-ylpiperazin-1-yl)acetic acid]	953
O=C(O)CN1CCCC(N(c2ccccc2)c2cccc(C(F)(F)F)c2)C1 (centres unmarked) [Cpd II-4, 2-(3-(phenyl(3-(trifluoromethyl)-phenyl)amino)piperidin-1-yl)acetic acid]	> 2000
O=C(O)CN1CCC(C2c3ccccc3Oc3ccccc32)CC1 [Cpd I-30, 2-(4-(9H-xanthen-9-yl)piperidin-1-yl)acetic acid]	5320
O=C(O)CN1CCCC(C(c2ccccc2)c2ccc(C(F)(F)F)cc2)C1 (centres unmarked) [Cpd II-1, 2-(3-(phenyl(4-(trifluoromethyl)-phenyl)methyl)piperidin-1-yl)acetic acid]	562
C[C@@H]1CN(C2c3ccccc3CCc3ccccc32)CCN1CC(=O)O [Cpd I-5]	147
C[C@@H]1CN(C2(c3ccccc3)CCCCC2)CCN1CC(=O)O [Cpd I-14, (R)-2-(2-methyl-4-(1-phenyl-cyclohexyl)-piperazin-1-yl)acetic acid]	1530
O=C(O)CN1CCC(N(c2ccccc2)c2cccc(-c3cccnc3)c2)C1 (centres unmarked) [Cpd II-10, 2-(3-(phenyl(3-(pyridin-3-yl)-phenyl)amino)pyrrolidin-1-yl)acetic acid]	14
O=C(O)CN1CCC(C(c2ccccc2)c2ccccc2C(F)(F)F)CC1 (centres unmarked) [Cpd I-16, 2-(4-(phenyl(2-(trifluoromethyl)-phenyl)-methyl)piperidin-1-yl)acetic acid]	3520
O=C(O)CN1CCC(C2c3ccccc3-c3ccccc32)CC1 [Cpd I-28, 2-(4-(9H-fluoren-9-yl)piperidin-1-yl)acetic acid]	> 10000
O=C(O)CN1CCN(c2c3ccccc3cc3ccccc23)CC1 [Cpd I-11, 2-(4-anthracen-9-ylpiperazin-1-yl)acetic acid]	> 10000
C[C@@H]1CN(c2c3ccccc3cc3ccccc23)CCN1CC(=O)O [Cpd I-12, (R)-2-(4-anthracen-9-yl-2-methyl-piperazin-1-yl)acetic acid]	687
O=C(O)CN1CCCC(N(c2ccccc2)c2ccc(C(F)(F)F)cc2)C1 (centres unmarked) [Cpd II-3, 2-(3-(phenyl(4-(trifluoromethyl)-phenyl)amino)piperidin-1-yl)acetic acid]	296
O=C(O)CN1CCN(C2(c3ccccc3)CCCCC2)CC1 [Cpd I-13, 2-(4-(1-phenylcyclohexyl)piperazin-1-yl)acetic acid]	> 10000
O=C(O)CN1CCC(N(c2ccccc2)c2ccc(C(F)(F)F)cc2)CC1 [Cpd I-22, 2-(4-(phenyl(4-(trifluoromethyl)phenyl)-amino)piperidin-1-yl)acetic acid]	129
C[C@@H]1CN(C2(c3ccc(Cl)cc3)CCCCC2)CCN1CC(=O)O [Cpd I-26, (R)-2-(4-(1-(4-chlorophenyl)cyclohexyl)-2-methylpiperazin-1-yl)acetic acid]	101
C[C@@H]1CN(C2CCc3ccc(Br)cc32)CCN1CC(=O)O (stereo partly drawn) [Cpd I-3, 2-((R)-4-(6-bromo-2,3-dihydro-1H-inden-1-yl)-2-methyl-piperazin-1-yl)acetic acid]	1010
C[C@@H]1CN(C2CCCCc3ccccc32)CCN1CC(=O)O (stereo partly drawn) [Cpd I-1, 2-((R)-2-methyl-4-(6,7,8,9-tetrahydro-5H-benzo[7]annulen-5-yl)-piperazin-1-yl)acetic acid]	258
C[C@@H]1CN(C2CCCCC2c2ccccc2)CCN1CC(=O)O (stereo partly drawn) [Cpd I-6, 2-((R)-2-methyl-4-(2-phenylcyclohexyl)-piperazin-1-yl)acetic acid dihydrochloride]	1130
O=C(O)CN1CCC(C(c2ccccc2)c2ccccc2)CC1 [Cpd I-8, 2-(4-benzhydrylpiperidin-1-yl)acetic acid]	536
